Laboratory results from patent US20170231929A1, “METHOD FOR ENHANCING IMMUNE CELL FUNCTION AND METHOD FOR ASSESSING IMMUNE CELL MULTIFUNCTIONALITY” (NATIONAL UNIVERSITY CORPORATION OKAYAMA UNIVERSITY, priority 2014, published 2017).

System: CD8^+T cells
Assay: Multifunctionality of CD8^+T cells of primary lung cancer patients (stage I) after metformin treatment of PBMC (flow cytometer)
Assay type: cell-based, human
Conditions: for Decrease, IFNγ 1-cytokine-producing cell / Decrease, IFNγ/IL-2 2-cytokine-producing cell / Decrease, IFNγ/TNFα 2-cytokine-producing cell / Decrease, IFNγ/TNFα/IL2 3-cytokine-producing cell / Increase, IFNγ 1-cytokine-producing cell / Increase, IFNγ/IL-2 2-cytokine-producing cell / Increase, IFNγ/TNFα 2-cytokine-producing cell / Increase, IFNγ/TNFα/IL2 3-cytokine-producing cell / No Change, IFNγ 1-cytokine-producing cell / No Change, IFNγ/IL-2 2-cytokine-producing cell / No Change, IFNγ/TNFα 2-cytokine-producing cell / No Change, IFNγ/TNFα/IL2 3-cytokine-producing cell: Cancer Patients (stage I)
Method: 1. Peripheral blood was obtained from a test subject, and PBMC was separated by a density-gradient centrifugation using a lymphocyte-separating reagent Ficoll-Paque® (GE Healthcare). 3 mL of Ficoll-Paque® was dispensed in a 15-mL tube. 8 mL of the peripheral blood was gently placed on the reagent. At this time, care should be taken not to mix Ficoll-Paque® with the peripheral blood. Centrifugation was performed at 400 g for 30 minutes, thereby separating PBMC. 2. The separated PBMC was preserved in a −150° C. freezer or liquid nitrogen using Bambang Car cell preservation liquid by adjusting the cell number to 2.0×10^6 cell/tube. 3. In the test, the thawed PBMC was cultured for 1 to 10 hours in the presence or absence of […]. The culture was performed using a 24-well plate, and the cell number was adjusted to about 5.0×10^5 cell/well. 4. The cells were collected after 1 to 10 hours, washed with medium, and cultured in the presence of a cell activation reagent (potent nanomolar activator of protein kinase C (PMA, 50 ng/mL), ionomycin (1 μM)) for 6 hours, thereby non-specifically stimulating T cells. At this time, BD Gorgi Stop™ was added to keep the produced cytokines inside the cells. 5. The cells were isolated and washed twice with a cell-staining buffer. First, staining of CD8, PD-1, Tim-3, which are molecules expressed on the T cell surface, was performed. In the staining, a staining buffer was added in an amount of 50 μL per sample. The culture was performed at 4° C. for 30 minutes. 6. The cells were collected and washed twice with a cell-staining buffer. 500 μL of BD Cytofix/Cytoperm was added and cultured at 4° C. for 30 minutes. 7. The cells were collected and washed twice with BD Perm/Wash™. Staining of cytokines IL-2, TNFα, and IFNγ was performed. In the staining, BD Perm/Wash™ was added in an amount of 50 μL per sample. The culture was performed at 4° C. for 30 minutes. 8. The cells were collected and washed twice with BD Perm/Wash™, and 200 μL of BD Perm/Wash™ was added. 9. Analysis was performed using a FACSCanto™ II flow cytometer (Becton, Dickinson and Company).
Among the PBMC treated with PMA/ionomycin in the method shown in (2) above, first, a gate was applied to CD8^+T cells using a FACSCanto™ II flow cytometer (Becton, Dickinson and Company), and then […] were removed by FSC-A and FSC-H. Using parameters FSC-A and SSC-A, a gate was applied to a lymphocyte group, thereby analyzing expression of PD-1 and Tim-3. Further, intracellular cytokines IFNγ, TNFα, and IL-2 were stained, and multifunctionality of CD8^+T cells contained in the PBMC was analyzed (FIG. 1).
Each PBMC obtained from 31 primary lung cancer patients (stage I) was cultured for an hour in the same manner as in (4) in the presence or absence of metformin. After metformin was removed, each resulting PBMC was analyzed. In a representative example, the CD8^+T cells untreated with metformin were determined to be 0.92%, and the CD8^+T cells treated with metformin were determined to be 1.44% (FIG. 3). Accordingly, it was judged that, in comparison with healthy subjects, multifunctionality of CD8^+T cells was increased by a metformin treatment in many cancer patients.
Among the cancer patients treated as above, the ratios of CD8^+T cells producing three kinds of cytokines (IFNγ/TNFα/IL-2), CD8^+T cells producing two kinds of cytokines (IFNγ/TNFα or IFNγ/IL-2), CD8^+T cells producing one kind of cytokine (IFNγ) with respect to the entire CD8^+T cells were calculated according to the same analysis as in (4), and shown in Table 2. The calculation results were compared between the metformin-untreated group (control) and the metformin-treated group (metformin).
This Example analyzed test results of recovery of multifunctionality of CD8^+T cells by metformin in 10 healthy subjects and 31 cancer patients (stage I) based on the results obtained by the method in Example 1. […]

[1] = total CD8^+T cells, cancer patients (stage I)

Structure (SMILES): CN(C)C(=N)N=C(N)N [metformin]
- Decrease, IFNγ 1-cytokine-producing cell (PD-1+, Tim-3+, patients/total): 10/31
- Decrease, IFNγ/IL-2 2-cytokine-producing cell (PD-1+, Tim-3+, patients/total): 8/31
- Decrease, IFNγ/TNFα 2-cytokine-producing cell (PD-1+, Tim-3+, patients/total): 9/31
- Decrease, IFNγ/TNFα/IL2 3-cytokine-producing cell (PD-1+, Tim-3+, patients/total): 7/31
- Increase, IFNγ 1-cytokine-producing cell (PD-1+, Tim-3+, patients/total): 19/31
- Increase, IFNγ/IL-2 2-cytokine-producing cell (PD-1+, Tim-3+, patients/total): 9/31
- Increase, IFNγ/TNFα 2-cytokine-producing cell (PD-1+, Tim-3+, patients/total): 11/31
- Increase, IFNγ/TNFα/IL2 3-cytokine-producing cell (PD-1+, Tim-3+, patients/total): 11/31
- No Change, IFNγ 1-cytokine-producing cell (PD-1+, Tim-3+, patients/total): 2/31
- No Change, IFNγ/IL-2 2-cytokine-producing cell (PD-1+, Tim-3+, patients/total): 14/31
- No Change, IFNγ/TNFα 2-cytokine-producing cell (PD-1+, Tim-3+, patients/total): 11/31
- No Change, IFNγ/TNFα/IL2 3-cytokine-producing cell (PD-1+, Tim-3+, patients/total): 13/31
- Decrease, IFNγ 1-cytokine-producing cell (PD-1+, Tim-3−, patients/total): 10/31
- Decrease, IFNγ/IL-2 2-cytokine-producing cell (PD-1+, Tim-3−, patients/total): 12/31
- Decrease, IFNγ/TNFα 2-cytokine-producing cell (PD-1+, Tim-3−, patients/total): 10/31
- Decrease, IFNγ/TNFα/IL2 3-cytokine-producing cell (PD-1+, Tim-3−, patients/total): 10/31
- Increase, IFNγ 1-cytokine-producing cell (PD-1+, Tim-3−, patients/total): 11/31
- Increase, IFNγ/IL-2 2-cytokine-producing cell (PD-1+, Tim-3−, patients/total): 12/31
- Increase, IFNγ/TNFα 2-cytokine-producing cell (PD-1+, Tim-3−, patients/total): 10/31
- Increase, IFNγ/TNFα/IL2 3-cytokine-producing cell (PD-1+, Tim-3−, patients/total): 14/31
- No Change, IFNγ 1-cytokine-producing cell (PD-1+, Tim-3−, patients/total): 10/31
- No Change, IFNγ/IL-2 2-cytokine-producing cell (PD-1+, Tim-3−, patients/total): 7/31
- No Change, IFNγ/TNFα 2-cytokine-producing cell (PD-1+, Tim-3−, patients/total): 11/31
- No Change, IFNγ/TNFα/IL2 3-cytokine-producing cell (PD-1+, Tim-3−, patients/total): 7/31
- Decrease, IFNγ 1-cytokine-producing cell (PD-1−, Tim-3+, patients/total): 14/31
- Decrease, IFNγ/IL-2 2-cytokine-producing cell (PD-1−, Tim-3+, patients/total): 9/31
- Decrease, IFNγ/TNFα 2-cytokine-producing cell (PD-1−, Tim-3+, patients/total): 8/31
- Decrease, IFNγ/TNFα/IL2 3-cytokine-producing cell (PD-1−, Tim-3+, patients/total): 6/31
- Increase, IFNγ 1-cytokine-producing cell (PD-1−, Tim-3+, patients/total): 10/31
- Increase, IFNγ/IL-2 2-cytokine-producing cell (PD-1−, Tim-3+, patients/total): 13/31
- Increase, IFNγ/TNFα 2-cytokine-producing cell (PD-1−, Tim-3+, patients/total): 13/31
- Increase, IFNγ/TNFα/IL2 3-cytokine-producing cell (PD-1−, Tim-3+, patients/total): 12/31
- No Change, IFNγ 1-cytokine-producing cell (PD-1−, Tim-3+, patients/total): 7/31
- No Change, IFNγ/IL-2 2-cytokine-producing cell (PD-1−, Tim-3+, patients/total): 9/31
- No Change, IFNγ/TNFα 2-cytokine-producing cell (PD-1−, Tim-3+, patients/total): 10/31
- No Change, IFNγ/TNFα/IL2 3-cytokine-producing cell (PD-1−, Tim-3+, patients/total): 13/31
- Decrease, IFNγ 1-cytokine-producing cell (PD-1−, Tim-3−, patients/total): 16/31
- Decrease, IFNγ/IL-2 2-cytokine-producing cell (PD-1−, Tim-3−, patients/total): 17/31
- Decrease, IFNγ/TNFα 2-cytokine-producing cell (PD-1−, Tim-3−, patients/total): 14/31
- Decrease, IFNγ/TNFα/IL2 3-cytokine-producing cell (PD-1−, Tim-3−, patients/total): 14/31
- Increase, IFNγ 1-cytokine-producing cell (PD-1−, Tim-3−, patients/total): 9/31
- Increase, IFNγ/IL-2 2-cytokine-producing cell (PD-1−, Tim-3−, patients/total): 12/31
- Increase, IFNγ/TNFα 2-cytokine-producing cell (PD-1−, Tim-3−, patients/total): 13/31
- Increase, IFNγ/TNFα/IL2 3-cytokine-producing cell (PD-1−, Tim-3−, patients/total): 13/31
- No Change, IFNγ 1-cytokine-producing cell (PD-1−, Tim-3−, patients/total): 6/31
- No Change, IFNγ/IL-2 2-cytokine-producing cell (PD-1−, Tim-3−, patients/total): 2/31
- No Change, IFNγ/TNFα 2-cytokine-producing cell (PD-1−, Tim-3−, patients/total): 4/31
- No Change, IFNγ/TNFα/IL2 3-cytokine-producing cell (PD-1−, Tim-3−, patients/total): 4/31
- Decrease, IFNγ 1-cytokine-producing cell (Total CD8T, patients/total): 13/31
- Decrease, IFNγ/IL-2 2-cytokine-producing cell (Total CD8T, patients/total): 15/31
- Decrease, IFNγ/TNFα 2-cytokine-producing cell (Total CD8T, patients/total): 12/31
- Decrease, IFNγ/TNFα/IL2 3-cytokine-producing cell (Total CD8T, patients/total): 12/31
- Increase, IFNγ 1-cytokine-producing cell (Total CD8T, patients/total): 5/31
- Increase, IFNγ/IL-2 2-cytokine-producing cell (Total CD8T, patients/total): 13/31
- Increase, IFNγ/TNFα 2-cytokine-producing cell (Total CD8T, patients/total): 15/31
- Increase, IFNγ/TNFα/IL2 3-cytokine-producing cell (Total CD8T, patients/total): 14/31
- No Change, IFNγ 1-cytokine-producing cell (Total CD8T, patients/total): 13/31
- No Change, IFNγ/IL-2 2-cytokine-producing cell (Total CD8T, patients/total): 3/31
- No Change, IFNγ/TNFα 2-cytokine-producing cell (Total CD8T, patients/total): 4/31
- No Change, IFNγ/TNFα/IL2 3-cytokine-producing cell (Total CD8T, patients/total): 5/31
- Increase + No Change, IFNγ/TNFα/IL2, share of patients (Total CD8T, Patients (stage I)): 61.3%
- Increase + No Change, IFNγ/TNFα/IL2 (Total CD8T, Patients (stage I), patients/total): 19/31
- multifunctionality of CD8^+T cells by a metformin treatment (many cancer patients, in comparison with healthy subjects): increased
- CD8^+T cells capable of simultaneously producing IFNγ, TNFα and IL-2, treated with metformin (primary lung cancer patients (stage I), representative example, FIG. 3, untreated with metformin 0.92%): 1.44%
- decrease in multifunctionality (three kinds of cytokines), share of patients [1]: 38.7%
- increase in multifunctionality (three kinds of cytokines), share of patients [1]: 45.2%
